Consider 16 compounds from PubChem BioAssay AID248 (DTP/NCI, 2004).

The test has as its system L1210 leukemia ip in BDF1 mice, survival T/C. The experiment in a line: NCI In Vivo Anticancer Drug Screen. Data for tumor model L1210 Leukemia (intraperitoneal) in B6D2F1 (BDF1) mice. The following applies: higher = longer survival. Put shortly:
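In this screen, tumor-bearing mice given compound are compared to those given vehicle, and their survival values are reported as a treated-to-control quotient.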

Setting [1] is: endpoint: mean survival time, dose: 100.0 mg/kg/injection, schedule: Q01DX009 (ip), vehicle: Klucel (hydroxypropylcellulose) (HPC).
Where [2] appears, read: endpoint: mean survival time, dose: 200.0 mg/kg/injection, schedule: Q01DX009 (ip), vehicle: Klucel (hydroxypropylcellulose) (HPC).
[3] abbreviates: endpoint: mean survival time, dose: 100.0 mg/kg/injection, schedule: Q04DX003 (ip), vehicle: Klucel (hydroxypropylcellulose) (HPC).
Setting [4] is: endpoint: mean survival time, dose: 200.0 mg/kg/injection, schedule: Q04DX003 (ip), vehicle: Klucel (hydroxypropylcellulose) (HPC).

“And” between values parts separate entries of the source, which are not always exact repeats. Equal entries are not always repeated. Inconclusive results and toxic doses are left out.

For the compound `CCC(c1ccc2cc(OC)ccc2c1)C(C(=O)O)C(=O)O` (stereo unspecified), the T/C reads like this: (endpoint: mean survival time, dose: 50.0 mg/kg/injection, schedule: Q01DX009 (ip), vehicle: Klucel (hydroxypropylcellulose) (HPC)) 96 % of control; under setting [1], 107 % of control; under setting [2], 96 % of control.

For the compound `CC(=O)n1cc(F)c(=O)[nH]c1=O`, the T/C was 108 % of control (endpoint: mean survival time, dose: 2.1 mg/kg/injection, schedule: Q01DX009 (ip), vehicle: saline with Tween-80); 111 % of control (endpoint: mean survival time, dose: 3.1 mg/kg/injection, schedule: Q01DX009 (ip), vehicle: saline with Tween-80); 108 % of control (endpoint: mean survival time, dose: 6.25 mg/kg/injection, schedule: Q04DX003 (ip), vehicle: saline); 115 % of control (endpoint: mean survival time, dose: 12.5 mg/kg/injection, schedule: Q04DX003 (ip), vehicle: saline); 152 % of control (endpoint: mean survival time, dose: 25.0 mg/kg/injection, schedule: Q01DX009 (ip), vehicle: saline); 123 % of control (endpoint: mean survival time, dose: 25.0 mg/kg/injection, schedule: Q04DX003 (ip), vehicle: saline). In addition, the T/C is, setting by setting: (endpoint: mean survival time, dose: 50.0 mg/kg/injection, schedule: Q04DX003 (ip), vehicle: saline) 151 % of control; (endpoint: mean survival time, dose: 100.0 mg/kg/injection, schedule: Q01DX009 (ip), vehicle: saline) 101 % of control; (endpoint: mean survival time, dose: 100.0 mg/kg/injection, schedule: Q04DX003 (ip), vehicle: saline with Tween-80) 188 % of control; (endpoint: mean survival time, dose: 100.0 mg/kg/injection, schedule: Q04DX003 (ip), vehicle: saline) 207 % of control; (endpoint: mean survival time, dose: 150.0 mg/kg/injection, schedule: Q01DX001 (ip), vehicle: saline) 152 % of control; (endpoint: mean survival time, dose: 200.0 mg/kg/injection, schedule: Q04DX003 (ip), vehicle: saline) 113 % of control. The T/C (endpoint: mean survival time, dose: 300.0 mg/kg/injection, schedule: Q01DX001 (ip), vehicle: saline) was 151 % of control.

As for `O=C(O)CNc1cc(S(=O)(=O)O)cc2cc(S(=O)(=O)O)c(N=Nc3cc(S(=O)(=O)O)cc4cc(S(=O)(=O)O)cc(O)c34)c(O)c12`, the T/C was 101 % of control (endpoint: mean survival time, dose: 100.0 mg/kg/injection, schedule: Q01DX001 (ip), vehicle: other) and 104 % of control (endpoint: mean survival time, dose: 200.0 mg/kg/injection, schedule: Q01DX001 (ip), vehicle: other).

For `CN(C)N=Nc1ccc([N+](=O)[O-])cc1C(=O)O`, the T/C reads like this: (endpoint: mean survival time, dose: 25.0 mg/kg/injection, schedule: Q04DX003 (ip), vehicle: other) 93 % of control; (endpoint: mean survival time, dose: 50.0 mg/kg/injection, schedule: Q04DX003 (ip), vehicle: other) 98 % of control; under setting [1], 100 % of control; (endpoint: mean survival time, dose: 100.0 mg/kg/injection, schedule: Q04DX003 (ip), vehicle: other) 98 % of control; under setting [2], 103 % of control; (endpoint: mean survival time, dose: 200.0 mg/kg/injection, schedule: Q04DX003 (ip), vehicle: other) 101 % of control. The T/C (endpoint: mean survival time, dose: 400.0 mg/kg/injection, schedule: Q01DX009 (ip), vehicle: Klucel (hydroxypropylcellulose) (HPC)) was 110 % of control and the T/C (endpoint: mean survival time, dose: 400.0 mg/kg/injection, schedule: Q04DX003 (ip), vehicle: other) is 98 % of control.

Regarding `CC(=O)Oc1c(Cl)c(Cl)c(Cl)c(Cl)c1Cl`, the T/C was 101 % of control (endpoint: mean survival time, dose: 100.0 mg/kg/injection, schedule: Q01DX009 (ip), vehicle: saline sonified); 100 % of control under setting [3]; 107 % of control (endpoint: mean survival time, dose: 200.0 mg/kg/injection, schedule: Q01DX009 (ip), vehicle: saline sonified); 100 % of control under setting [4]; 106 % of control (endpoint: mean survival time, dose: 400.0 mg/kg/injection, schedule: Q01DX009 (ip), vehicle: saline sonified); 93 % of control (endpoint: mean survival time, dose: 400.0 mg/kg/injection, schedule: Q04DX003 (ip), vehicle: Klucel (hydroxypropylcellulose) (HPC)).

As for `CCCN1C(=O)CC(=O)NC1=O`, the T/C runs as follows: (endpoint: mean survival time, dose: 100.0 mg/kg/injection, schedule: Q01DX001 (ip), vehicle: saline) 102 % of control; (endpoint: mean survival time, dose: 200.0 mg/kg/injection, schedule: Q01DX001 (ip), vehicle: saline) 100 % of control; (endpoint: mean survival time, dose: 400.0 mg/kg/injection, schedule: Q01DX001 (ip), vehicle: saline) 100 % of control.

`O=C1NC(=O)C(c2ccccc2)(C2CCC2)N1` (stereo unspecified): the T/C (endpoint: mean survival time, dose: 100.0 mg/kg/injection, schedule: Q01DX009 (ip), vehicle: saline with Tween-80) is 93 % of control; the T/C (endpoint: mean survival time, dose: 200.0 mg/kg/injection, schedule: Q01DX009 (ip), vehicle: saline with Tween-80) is 103 % of control; the T/C (endpoint: mean survival time, dose: 400.0 mg/kg/injection, schedule: Q01DX009 (ip), vehicle: saline with Tween-80) was 95 % of control.

With `c1ccc(-c2cc[c]([Sn]([c]3ccccc3)([c]3ccccc3)[c]3ccccc3)cc2)cc1`, the T/C was 103 % of control (endpoint: mean survival time, dose: 100.0 mg/kg/injection, schedule: Q04DX002 (ip), vehicle: other); 107 % of control (endpoint: mean survival time, dose: 200.0 mg/kg/injection, schedule: Q04DX002 (ip), vehicle: other); 96 % of control (endpoint: mean survival time, dose: 400.0 mg/kg/injection, schedule: Q04DX002 (ip), vehicle: other).

On to `Cc1nccc2c1[nH]c1cc(N)ccc12.[Cl][Sn][Cl]`, for which the T/C is, setting by setting: (endpoint: mean survival time, dose: 5.0 mg/kg/injection, schedule: Q04DX003 (ip), vehicle: saline with Tween-80) 102 % of control; (endpoint: mean survival time, dose: 10.0 mg/kg/injection, schedule: Q04DX003 (ip), vehicle: saline with Tween-80) 94 % of control; (endpoint: mean survival time, dose: 20.0 mg/kg/injection, schedule: Q04DX003 (ip), vehicle: saline with Tween-80) 96 % of control.

Take `O=C(O)c1cccc(Cl)c1F`: the T/C is 97 % of control (endpoint: mean survival time, dose: 50.0 mg/kg/injection, schedule: Q04DX002 (ip), vehicle: saline with Tween-80); 97 % of control and 107 % of control (endpoint: mean survival time, dose: 100.0 mg/kg/injection, schedule: Q04DX002 (ip), vehicle: saline with Tween-80); 97 % of control (endpoint: mean survival time, dose: 200.0 mg/kg/injection, schedule: Q04DX002 (ip), vehicle: saline with Tween-80).

As to `CCCCCCCCC(=O)N1CCCCC1C` (stereo unspecified), the T/C is, setting by setting: (endpoint: mean survival time, dose: 100.0 mg/kg/injection, schedule: Q04DX002 (ip), vehicle: Klucel (hydroxypropylcellulose) (HPC)) 96 % of control; (endpoint: mean survival time, dose: 200.0 mg/kg/injection, schedule: Q04DX002 (ip), vehicle: Klucel (hydroxypropylcellulose) (HPC)) 100 % of control; (endpoint: mean survival time, dose: 400.0 mg/kg/injection, schedule: Q04DX002 (ip), vehicle: Klucel (hydroxypropylcellulose) (HPC)) 88 % of control.

For `Cc1nc2nc(N)nc(N)c2nc1CNc1ccc(C(=O)NC(CCC(=O)O)C(=O)O)cc1` (stereo unspecified), the T/C (endpoint: median survival time, dose: 0.39 mg/kg/injection, schedule: Q01DX009 (ip), vehicle: other) is 100 % of control; the T/C (endpoint: median survival time, dose: 0.65 mg/kg/injection, schedule: Q01DX009 (ip), vehicle: other) is 100 % of control; the T/C (endpoint: median survival time, dose: 1.08 mg/kg/injection, schedule: Q01DX009 (ip), vehicle: other) is 100 % of control; the T/C (endpoint: median survival time, dose: 1.8 mg/kg/injection, schedule: Q01DX009 (ip), vehicle: other) is 100 % of control; the T/C (endpoint: median survival time, dose: 5.0 mg/kg/injection, schedule: Q01DX009 (ip), vehicle: other) is 100 % of control; the T/C (endpoint: median survival time, dose: 14.0 mg/kg/injection, schedule: Q01DX009 (ip), vehicle: other) is 110 % of control. For the same compound, the T/C is 100 % of control (endpoint: median survival time, dose: 108.0 mg/kg/injection, schedule: Q01DX009 (ip), vehicle: other); 105 % of control (endpoint: median survival time, dose: 180.0 mg/kg/injection, schedule: Q01DX009 (ip), vehicle: other); 105 % of control (endpoint: median survival time, dose: 300.0 mg/kg/injection, schedule: Q01DX009 (ip), vehicle: other).

As for `NCCCCC(N)C(=O)Nc1ccc(Nc2ccc(NC(=O)C(N)CCCCN)cc2)cc1` (stereo unspecified), the T/C runs as follows: (endpoint: mean survival time, dose: 5.0 mg/kg/injection, schedule: Q01DX001 (ip), vehicle: saline) 92 % of control; (endpoint: mean survival time, dose: 10.0 mg/kg/injection, schedule: Q01DX001 (ip), vehicle: saline) 90 % of control; (endpoint: mean survival time, dose: 20.0 mg/kg/injection, schedule: Q01DX001 (ip), vehicle: saline) 92 % of control; (endpoint: mean survival time, dose: 40.0 mg/kg/injection, schedule: Q01DX001 (ip), vehicle: saline) 93 % of control; (endpoint: mean survival time, dose: 80.0 mg/kg/injection, schedule: Q01DX001 (ip), vehicle: saline) 93 % of control.

As to `[C-]#[N+]CCc1ccccc1`, the T/C reads like this: (endpoint: mean survival time, dose: 100.0 mg/kg/injection, schedule: Q01DX001 (ip), vehicle: saline with Tween-80) 98 % of control; (endpoint: mean survival time, dose: 200.0 mg/kg/injection, schedule: Q01DX001 (ip), vehicle: saline with Tween-80) 96 % of control.

With `O=C(OCC(Cl)(Cl)Cl)OCC(Cl)(Cl)Cl`, the T/C by setting is: under setting [3], 98 % of control; under setting [4], 98 % of control.

`CC[N+](CC)(CC)CCNC(c1ccccc1)C(Cl)(Cl)Cl` (stereo unspecified): the T/C was 97 % of control (endpoint: mean survival time, dose: 12.5 mg/kg/injection, schedule: Q01DX001 (ip), vehicle: saline); 87 % of control (endpoint: mean survival time, dose: 25.0 mg/kg/injection, schedule: Q01DX001 (ip), vehicle: saline); 95 % of control (endpoint: mean survival time, dose: 50.0 mg/kg/injection, schedule: Q01DX001 (ip), vehicle: saline).
